{"source": "paper PMC11335189", "about": "“Revealing molecular determinants governing mambalgin-3 pharmacology at acid-sensing ion channel 1 variants” (Cellular and Molecular Life Sciences: CMLS, 2024)", "key": {"[1]": {"target": "T1, rASIC1b C208Q (Rattus norvegicus, UniProt P55926, C208Q)", "T1 construct": "expressed in transfected cells; host or cells: Xenopus laevis oocytes (cRNA injection)", "T1 sequence (P55926 1-559 isoform P55926-3 C208Q)": "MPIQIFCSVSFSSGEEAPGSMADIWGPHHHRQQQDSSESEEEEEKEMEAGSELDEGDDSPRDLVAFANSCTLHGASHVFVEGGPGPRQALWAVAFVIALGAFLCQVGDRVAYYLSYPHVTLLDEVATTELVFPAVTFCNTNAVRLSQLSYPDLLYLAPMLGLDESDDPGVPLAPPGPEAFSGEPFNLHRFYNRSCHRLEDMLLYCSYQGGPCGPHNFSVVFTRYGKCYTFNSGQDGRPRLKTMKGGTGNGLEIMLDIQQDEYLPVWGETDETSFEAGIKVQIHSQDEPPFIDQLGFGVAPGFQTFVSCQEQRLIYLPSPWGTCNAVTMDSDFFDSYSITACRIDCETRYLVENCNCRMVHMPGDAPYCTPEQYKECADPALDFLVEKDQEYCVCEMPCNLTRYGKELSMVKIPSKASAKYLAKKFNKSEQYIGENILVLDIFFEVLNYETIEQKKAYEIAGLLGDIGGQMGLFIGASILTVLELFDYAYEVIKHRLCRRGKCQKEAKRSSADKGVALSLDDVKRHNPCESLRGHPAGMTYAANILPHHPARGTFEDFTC", "assay": "TEVC oocytes, rASIC1b C208Q mutant", "assay_type": "cell-based", "method": "(§1) Two-electrode voltage-clamp (TEVC) experiments using Xenopus laevis oocytes were conducted as previously described. Briefly, oocytes were surgically removed from anaesthetised female frogs, then treated with collagenase (~ 1 mg/ml, Sigma type I) for 2 h under agitation at room temperature. cRNAs were synthesised using a mMessage mMachine T7 or SP6 transcription kit (Thermo Fisher Scientific Australia Pty Ltd, Scoresby, VIC, Australia) and injected into healthy stage V–VI oocytes at 0.2–20 ng per cell. […] Membrane currents were recorded 2–7 days after cRNA-injection under voltage-clamp at -60 mV (Axon Axoclamp 900 A, Molecular Devices, CA, USA) using two standard glass microelectrodes of 0.5–1 MΩ resistance when filled with 3 M KCl solution. […]\n(§2) Specific to this work, the standard protocol was for oocytes to be conditioned at pH 7.45 and channels stimulated every 60 s using a 5 s pH 5 or 6 application, unless stated otherwise. […] Activation curves were determined by conditioning oocytes at pH 8 (Fig. 2e − g; and Fig. 5a and b) or 7.45 (Fig. 6; and Supplementary Fig. 2d and c) for 55 s and applying low pH stimuli from 7.25 to 5.0 for 5 s. Steady-state desensitisation (SSD) was determined by applying conditioning solutions of pH values from 8 to 6 for 115 s prior to stimulation by a pH drop to 5 for 5 s. […] Control pH-dependence curves were determined in the absence of any Ma-3. […]"}, "[2]": {"target": "T2, rASIC1b N324K (Rattus norvegicus, UniProt P55926, N291K)", "T2 construct": "expressed in transfected cells; host or cells: Xenopus laevis oocytes injected with cRNA", "T2 sequence (P55926 1-559 isoform P55926-3 N324K)": "T1 sequence (P55926 1-559 isoform P55926-3 C208Q) with Q208C, N324K", "assay": "TEVC oocytes, rASIC1b N324K mutant", "assay_type": "cell-based", "settings": "300 nM Ma-3, conditioning pH 7.45; Hill fit, n = 5–6", "method": "as §1, §2"}, "[3]": {"test_system": "rASIC1a N291A", "assay": "TEVC oocytes, rASIC1a N291A mutant", "assay_type": "cell-based, rat", "settings": "concentration-response, conditioning pH 7.45, stimulating pH 6", "method": "as §1, §2"}}, "note": "Substitutions are numbered along the chain they refer to. Positions of bridges follow the written chain, without caps; N, C: chain ends. No end group written: not given here.", "data": [{"substance": "H-SLKCYQHGKVVTCHRDMKFCYHNIGMPFRNLKLILQGCSSSCSETENNKCCSTDRCNK (disulfide 4-20, 13-38, 42-50, 51-56 (inferred)) [Ma-3, mambalgin-3]", "values": [{"measurement": "pH50 of activation in presence of Ma-3", "setting": "[1]; 300 nM Ma-3, conditioning pH 7.45, Hill fit, n = 5–6", "result": 6.27}, {"measurement": "Hill slope (95% CI)", "setting": "[1]; conditioning pH 7.45, pH 6 evoked currents, potentiation, 95% CI", "result": "1.26–2.01"}, {"measurement": "pH50 of activation in presence of Ma-3", "setting": "[2]", "result": 6.21}, {"measurement": "effect of channel mutation on Ma-3 potency", "setting": "[3]", "result": "had no effect on potency"}]}]}
